According to patent US20090010902A1 (priority 2007, published 2009):

Experiments:
[1] = test system: TLR4 mRNA in human intestinal tract epithelial cell strain HT-29; format: cell-based
TLR4 protein = conditions: summary statement; no method described

With `CCCC(=O)O` [butyric acid] the “TLR4 mRNA expression (result in words)” value [1] was “similarly reduced” and the “expression amount of TLR4 protein (result in words)” value (TLR4 protein) was “reduced”.
